Assays:
hGLP1R = target: T1, hGLP1R (Homo sapiens, UniProt P43220); experiment: hGLP1R CreLuc assay in 0.5% and 100% plasma (HEK-293 CRE-luciferase reporter cells); type: cell-based; details: 0.5% human plasma, HEK-293 reporter cells, read-out: hGLP1R 0.5% hP
T1 construct: expressed in transfected cells; host or cells: HEK-293 CRE-luciferase reporter cells

hGIPR = target: T2, hGIPR (Homo sapiens, UniProt P48546); experiment: hGIPR CreLuc assay in 0.5% and 100% plasma (CHO CRE-luciferase reporter cells); type: cell-based; details: 0.5% human plasma, read-out: hGIPR 0.5% hP
T2 construct: expressed in transfected cells; host or cells: CHO CRE-luciferase reporter cells
T2 sequence (P48546 22-466): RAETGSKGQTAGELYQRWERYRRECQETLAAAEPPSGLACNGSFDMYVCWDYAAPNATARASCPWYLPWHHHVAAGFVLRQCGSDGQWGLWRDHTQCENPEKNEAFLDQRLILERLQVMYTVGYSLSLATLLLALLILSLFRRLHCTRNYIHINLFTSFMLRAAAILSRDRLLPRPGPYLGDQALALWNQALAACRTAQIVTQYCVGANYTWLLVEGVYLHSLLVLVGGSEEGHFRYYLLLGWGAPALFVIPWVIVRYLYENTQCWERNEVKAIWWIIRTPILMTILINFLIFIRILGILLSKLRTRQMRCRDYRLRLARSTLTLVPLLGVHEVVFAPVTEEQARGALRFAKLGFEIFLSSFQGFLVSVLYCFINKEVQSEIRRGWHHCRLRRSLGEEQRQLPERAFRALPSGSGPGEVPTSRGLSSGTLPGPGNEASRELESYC

[1] = Solubility in 0.1 M phosphate buffer at pH 7; type: physicochemical; details: 0.1 M phosphate buffer at pH 7, 10 mg/mL final peptide concentration, shaking 2 hours at room temperature, peptides as TFA-salts; measured sample pH 6.5-7.0

T1 sequence (P43220 24-463): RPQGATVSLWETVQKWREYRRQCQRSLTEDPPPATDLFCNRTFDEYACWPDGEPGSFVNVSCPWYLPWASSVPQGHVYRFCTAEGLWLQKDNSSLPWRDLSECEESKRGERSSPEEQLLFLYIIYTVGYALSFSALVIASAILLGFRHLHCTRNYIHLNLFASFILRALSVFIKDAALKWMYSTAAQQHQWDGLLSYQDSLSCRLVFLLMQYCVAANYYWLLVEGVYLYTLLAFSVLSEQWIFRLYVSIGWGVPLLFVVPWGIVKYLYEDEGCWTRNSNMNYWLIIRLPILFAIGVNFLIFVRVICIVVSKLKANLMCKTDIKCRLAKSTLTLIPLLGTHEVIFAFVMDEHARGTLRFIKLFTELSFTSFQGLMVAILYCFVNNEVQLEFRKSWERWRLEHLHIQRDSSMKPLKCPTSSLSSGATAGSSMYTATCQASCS

EC50 (hGLP1R) [nM]	EC50 (hGIPR) [nM]	solubility at 2 h [1] [µg/mL]	Structure (SMILES)
0.7	0.5	4900	CC[C@H](C)[C@H](NC(=O)[C@H](CC(C)C)NC(=O)[C@H](Cc1c[nH]cn1)NC(=O)[C@H](CCCNC(=N)N)NC(=O)[C@@H](NC(=O)[C@H](Cc1ccccc1)NC(=O)[C@H](CCC(=O)O)NC(=O)C(C)(C)NC(=O)[C@H](CCC(N)=O)NC(=O)[C@H](C)NC(=O)[C@H](CCC(N)=O)NC(=O)[C@H](CCCCN)NC(=O)[C@H](CCC(=O)O)NC(=O)[C@H](CC(C)C)NC(=O)C(C)(C)NC(=O)[C@@H](NC(=O)[C@H](CO)NC(=O)[C@H](Cc1ccc(O)cc1)NC(=O)[C@H](CC(=O)O)NC(=O)[C@H](CO)NC(=O)[C@@H](NC(=O)[C@H](Cc1ccccc1)NC(=O)[C@@H](NC(=O)CNC(=O)[C@H](CCC(=O)O)NC(=O)C(C)(C)NC(=O)[C@@H](N)Cc1ccc(O)cc1)[C@@H](C)O)[C@@H](C)O)[C@@H](C)CC)C(C)C)C(=O)N[C@@H](CC(N)=O)C(=O)N[C@@H](CCCCNC(=O)COCCOCCNC(=O)COCCOCCNC(=O)CC[C@H](NC(=O)CC[C@H](NC(=O)CC[C@H](NC(=O)CC[C@H](NC(=O)CC[C@H](NC(=O)CCCCCCCCCCCCCCCCC(=O)O)C(=O)O)C(=O)O)C(=O)O)C(=O)O)C(=O)O)C(=O)NC(C)(C)C(=O)N[C@H](C(=O)N[C@@H](CCCNC(=N)N)C(=O)N[C@@H](CCC(N)=O)C(=O)N[C@@H](CCCNC(=N)N)C(=O)N[C@@H](Cc1ccc(O)cc1)C(N)=O)[C@@H](C)O [Compound 98, Y-Aib-E-G-T-F-T-S-D-Y-S-I-Aib-L-E-K-Q-A-Q-Aib-E-F-V-R-H-L-I-N-K(1,3)-Aib-T-R-Q-R-Y-NH2.C18DA-gGlu-gGlu-gGlu-gGlu-gGlu-OEG-OEG(1,2)]
0.4	0.4	8800	CC[C@H](C)[C@H](NC(=O)[C@H](CC(C)C)NC(=O)[C@H](Cc1c[nH]cn1)NC(=O)[C@H](CCCNC(=N)N)NC(=O)[C@@H](NC(=O)[C@H](Cc1ccccc1)NC(=O)[C@H](C)NC(=O)C(C)(C)NC(=O)[C@H](CCC(N)=O)NC(=O)[C@H](C)NC(=O)[C@H](CCC(N)=O)NC(=O)[C@H](C)NC(=O)[C@H](CC(=O)O)NC(=O)[C@H](CC(C)C)NC(=O)C(C)(C)NC(=O)[C@@H](NC(=O)[C@H](CO)NC(=O)[C@H](Cc1ccc(O)cc1)NC(=O)[C@H](CC(=O)O)NC(=O)[C@H](CO)NC(=O)[C@@H](NC(=O)[C@H](Cc1ccccc1)NC(=O)[C@@H](NC(=O)CNC(=O)[C@H](CCC(=O)O)NC(=O)C(C)(C)NC(=O)[C@@H](N)Cc1ccc(O)cc1)[C@@H](C)O)[C@@H](C)O)[C@@H](C)CC)C(C)C)C(=O)N[C@@H](CC(N)=O)C(=O)N[C@@H](CCCCNC(=O)[C@@H](N)CCCCNC(=O)CC[C@H](NC(=O)CC[C@H](NC(=O)CC[C@H](NC(=O)CC[C@H](NC(=O)CC[C@H](NC(=O)CC[C@H](NC(=O)CCCCCCCCCCCCCCCCC(=O)O)C(=O)O)C(=O)O)C(=O)O)C(=O)O)C(=O)O)C(=O)O)C(=O)NC(C)(C)C(=O)N[C@H](C(=O)N[C@@H](CCCNC(=N)N)C(=O)N[C@@H](CCC(N)=O)C(=O)N[C@@H](CCCNC(=N)N)C(=O)N[C@@H](Cc1ccc(O)cc1)C(N)=O)[C@@H](C)O [Compound 55, Y-Aib-E-G-T-F-T-S-D-Y-S-I-Aib-L-D-A-Q-A-Q-Aib-A-F-V-R-H-L-I-N-K(1,3)-Aib-T-R-Q-R-Y-NH2.C18DA-gGlu-gGlu-gGlu-gGlu-gGlu-gGlu-eLys(1,2)]

Reference: US20250382344A1, “Soluble GLP1/GIP/NPY2 Receptor Triple Agonists” (Boehringer Ingelheim International GmH, priority 2024, published 2025)
